Active and inactive are the calls of the source. The rule behind the calls is not given here.
What was measured:
[1] = target: Cytochrome P450 2C19 (Homo sapiens, UniProt P33261); assay: Inhibition of recombinant human CYP2C19 using coumarin based substrate by fluorescence assay; format: ADME
[2] = test system: Blood; assay: Effect on arachidonic acid pathway in calcium ionophore A23187-stimulated asthmatic human whole blood assessed as increase in lipoxin level preincubated for 30 mins followed by calcium ionophore A23187 stimulation and measured after 60 mins by LC-MS analysis; format: functional, tissue-based
[3] = target: Voltage-dependent L-type calcium channel subunit alpha-1C (Homo sapiens, UniProt Q13936); assay: Inhibition of human Cav1.2 expressed in CHOK1 cells at < 33 uM at -65 mV holding potential by Ionwork-based analysis; format: cell-based
Sequence of Voltage-dependent L-type calcium channel subunit alpha-1C (Q13936 whole entry): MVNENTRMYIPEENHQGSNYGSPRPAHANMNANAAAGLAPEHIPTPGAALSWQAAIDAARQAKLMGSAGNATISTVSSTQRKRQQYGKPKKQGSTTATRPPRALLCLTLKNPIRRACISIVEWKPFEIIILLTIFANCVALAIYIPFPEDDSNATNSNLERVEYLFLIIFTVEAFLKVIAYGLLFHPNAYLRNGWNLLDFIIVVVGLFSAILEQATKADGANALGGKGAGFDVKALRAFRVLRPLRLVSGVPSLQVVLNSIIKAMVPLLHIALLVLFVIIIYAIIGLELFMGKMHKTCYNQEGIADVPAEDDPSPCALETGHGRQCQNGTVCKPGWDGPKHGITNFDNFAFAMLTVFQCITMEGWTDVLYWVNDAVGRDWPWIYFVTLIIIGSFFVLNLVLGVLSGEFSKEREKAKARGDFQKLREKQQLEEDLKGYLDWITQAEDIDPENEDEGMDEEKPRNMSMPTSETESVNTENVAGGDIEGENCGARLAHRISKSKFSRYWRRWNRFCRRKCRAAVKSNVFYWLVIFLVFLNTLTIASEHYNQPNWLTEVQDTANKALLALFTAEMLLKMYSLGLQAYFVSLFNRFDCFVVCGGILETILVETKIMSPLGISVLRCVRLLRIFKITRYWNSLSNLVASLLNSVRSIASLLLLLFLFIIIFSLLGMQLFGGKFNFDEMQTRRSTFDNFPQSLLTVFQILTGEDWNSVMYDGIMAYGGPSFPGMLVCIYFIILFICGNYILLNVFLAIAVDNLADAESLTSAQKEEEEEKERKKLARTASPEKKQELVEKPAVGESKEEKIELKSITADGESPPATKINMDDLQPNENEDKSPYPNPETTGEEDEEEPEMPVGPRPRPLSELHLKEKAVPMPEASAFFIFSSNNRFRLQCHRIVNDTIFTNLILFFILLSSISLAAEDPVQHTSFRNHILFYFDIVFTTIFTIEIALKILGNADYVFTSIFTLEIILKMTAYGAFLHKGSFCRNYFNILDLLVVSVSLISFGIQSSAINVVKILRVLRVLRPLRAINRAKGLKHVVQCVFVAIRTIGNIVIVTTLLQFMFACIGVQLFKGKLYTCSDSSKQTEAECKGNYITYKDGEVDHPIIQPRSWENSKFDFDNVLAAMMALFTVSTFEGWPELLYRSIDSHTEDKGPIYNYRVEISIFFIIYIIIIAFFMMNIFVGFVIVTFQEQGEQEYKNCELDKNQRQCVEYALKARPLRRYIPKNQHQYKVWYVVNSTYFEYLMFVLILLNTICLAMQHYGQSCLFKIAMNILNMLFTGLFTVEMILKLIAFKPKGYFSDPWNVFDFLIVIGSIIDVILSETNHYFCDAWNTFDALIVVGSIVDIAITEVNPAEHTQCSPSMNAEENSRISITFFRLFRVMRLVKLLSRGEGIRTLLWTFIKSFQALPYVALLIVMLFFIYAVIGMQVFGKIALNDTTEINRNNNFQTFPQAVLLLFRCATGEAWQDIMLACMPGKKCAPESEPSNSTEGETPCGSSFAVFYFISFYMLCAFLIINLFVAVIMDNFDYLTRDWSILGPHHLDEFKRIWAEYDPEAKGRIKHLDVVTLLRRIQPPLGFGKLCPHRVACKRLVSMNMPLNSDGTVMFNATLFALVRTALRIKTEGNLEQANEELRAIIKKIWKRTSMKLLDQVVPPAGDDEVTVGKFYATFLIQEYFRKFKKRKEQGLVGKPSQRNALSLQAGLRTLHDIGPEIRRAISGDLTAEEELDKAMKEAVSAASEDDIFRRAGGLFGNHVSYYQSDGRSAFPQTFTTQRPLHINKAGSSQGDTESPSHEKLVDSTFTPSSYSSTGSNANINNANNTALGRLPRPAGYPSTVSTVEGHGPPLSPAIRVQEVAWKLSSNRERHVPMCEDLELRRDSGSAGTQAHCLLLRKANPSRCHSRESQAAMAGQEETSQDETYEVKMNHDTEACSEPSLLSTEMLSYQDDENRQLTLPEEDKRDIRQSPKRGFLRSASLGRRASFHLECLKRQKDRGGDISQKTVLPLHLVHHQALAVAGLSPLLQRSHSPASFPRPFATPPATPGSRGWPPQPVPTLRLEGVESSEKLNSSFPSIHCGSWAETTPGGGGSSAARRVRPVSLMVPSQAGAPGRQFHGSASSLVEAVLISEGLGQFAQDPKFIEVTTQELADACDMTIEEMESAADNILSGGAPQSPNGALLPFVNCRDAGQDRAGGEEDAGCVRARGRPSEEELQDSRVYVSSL

[4] = target: T1, Leukotriene C4 synthase (Homo sapiens) (UniProt Q16873)
T1 sequence (whole entry): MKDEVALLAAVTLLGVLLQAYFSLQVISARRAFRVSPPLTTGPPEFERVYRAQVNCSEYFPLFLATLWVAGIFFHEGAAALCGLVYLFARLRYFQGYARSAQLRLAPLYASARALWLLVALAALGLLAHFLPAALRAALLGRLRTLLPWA

[5] = target: T2, A-type potassium channel modulatory protein KCNIP2 (Homo sapiens) (UniProt Q9NS61); assay: Inhibition of human KvChIP2 expressed in CHOK1 cells at < 33 uM at -90 mV holding potential by Ionwork-based analysis; format: cell-based
T2 sequence (whole entry): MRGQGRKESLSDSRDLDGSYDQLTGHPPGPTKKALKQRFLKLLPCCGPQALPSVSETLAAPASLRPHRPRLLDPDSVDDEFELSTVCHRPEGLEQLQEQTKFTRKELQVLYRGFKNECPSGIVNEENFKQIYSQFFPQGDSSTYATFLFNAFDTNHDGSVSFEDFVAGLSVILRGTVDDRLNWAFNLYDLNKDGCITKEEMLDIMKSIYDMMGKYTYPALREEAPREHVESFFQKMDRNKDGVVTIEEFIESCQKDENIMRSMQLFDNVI

[6] = target: Cytochrome P450 2D6 (Homo sapiens, UniProt P10635); assay: Inhibition of recombinant human CYP2D6 using coumarin based substrate by fluorescence assay; format: ADME
Sequence of Cytochrome P450 2D6 (P10635 whole entry): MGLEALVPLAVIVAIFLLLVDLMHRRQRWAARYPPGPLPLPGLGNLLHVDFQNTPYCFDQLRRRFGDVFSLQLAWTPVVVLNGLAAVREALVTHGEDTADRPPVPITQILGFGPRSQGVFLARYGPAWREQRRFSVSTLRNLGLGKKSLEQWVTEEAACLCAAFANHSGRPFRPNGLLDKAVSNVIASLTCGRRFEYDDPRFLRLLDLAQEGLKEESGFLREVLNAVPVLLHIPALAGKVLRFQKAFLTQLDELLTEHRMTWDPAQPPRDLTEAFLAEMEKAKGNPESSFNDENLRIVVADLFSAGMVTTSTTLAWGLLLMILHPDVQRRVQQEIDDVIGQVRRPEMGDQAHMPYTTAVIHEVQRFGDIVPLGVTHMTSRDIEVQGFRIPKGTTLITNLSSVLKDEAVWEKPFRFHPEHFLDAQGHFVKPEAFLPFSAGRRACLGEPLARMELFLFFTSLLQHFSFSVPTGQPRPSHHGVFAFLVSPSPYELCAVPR

[7] = target: T3, Potassium voltage-gated channel subfamily KQT member 1 (Homo sapiens, UniProt P51787); assay: Inhibition of human KvLQT1 expressed in CHOK1 cells at < 33 uM at -80 mV holding potential by Ionwork-based analysis; format: cell-based
T3 sequence (P51787 whole entry): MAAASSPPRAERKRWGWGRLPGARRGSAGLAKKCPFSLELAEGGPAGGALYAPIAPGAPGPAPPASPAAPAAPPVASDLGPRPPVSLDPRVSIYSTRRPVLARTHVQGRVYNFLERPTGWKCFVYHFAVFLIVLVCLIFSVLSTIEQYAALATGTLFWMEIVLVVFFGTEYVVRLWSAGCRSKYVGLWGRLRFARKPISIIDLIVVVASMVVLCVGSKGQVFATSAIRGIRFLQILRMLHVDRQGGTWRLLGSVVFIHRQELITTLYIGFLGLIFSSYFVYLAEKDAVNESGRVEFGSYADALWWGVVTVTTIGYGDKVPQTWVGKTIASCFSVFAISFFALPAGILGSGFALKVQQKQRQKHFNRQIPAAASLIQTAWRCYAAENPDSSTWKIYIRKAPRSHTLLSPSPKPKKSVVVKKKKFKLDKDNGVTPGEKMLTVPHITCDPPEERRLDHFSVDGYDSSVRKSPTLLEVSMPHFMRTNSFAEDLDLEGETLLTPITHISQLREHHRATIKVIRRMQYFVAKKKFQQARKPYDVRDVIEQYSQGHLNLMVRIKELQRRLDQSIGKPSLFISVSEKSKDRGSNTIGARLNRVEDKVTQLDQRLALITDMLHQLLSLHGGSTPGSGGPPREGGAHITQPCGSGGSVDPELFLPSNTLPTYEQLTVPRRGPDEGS

[8] = target: T4, Cytochrome P450 1A2 (Homo sapiens, UniProt P05177); assay: Inhibition of recombinant human CYP1A2 using coumarin based substrate by fluorescence assay; format: ADME
T4 sequence (P05177 whole entry): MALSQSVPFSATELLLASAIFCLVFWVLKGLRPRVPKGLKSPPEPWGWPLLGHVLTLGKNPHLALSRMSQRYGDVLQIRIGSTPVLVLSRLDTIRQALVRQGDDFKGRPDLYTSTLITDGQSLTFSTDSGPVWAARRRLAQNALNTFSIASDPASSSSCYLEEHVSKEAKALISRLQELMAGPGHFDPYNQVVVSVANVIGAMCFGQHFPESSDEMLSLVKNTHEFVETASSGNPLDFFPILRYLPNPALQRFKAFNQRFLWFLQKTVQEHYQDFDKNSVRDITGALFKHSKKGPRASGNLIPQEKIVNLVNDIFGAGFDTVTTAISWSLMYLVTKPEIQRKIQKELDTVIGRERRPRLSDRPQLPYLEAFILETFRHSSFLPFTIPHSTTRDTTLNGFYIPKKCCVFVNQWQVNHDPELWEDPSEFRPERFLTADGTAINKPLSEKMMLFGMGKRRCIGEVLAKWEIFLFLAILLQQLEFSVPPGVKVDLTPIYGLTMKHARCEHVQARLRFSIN

[9] = Volume of distribution at steady state in cynomolgus monkey at 1 mg/kg, iv or 2 mg/kg, po after 48 hrs; format: ADME, organism-based, Macaca fascicularis; settings: in vivo, read-out: Vdss
[10] = target: T5, A-type voltage-gated potassium channel KCND3 (Homo sapiens, UniProt Q9UK17); assay: Inhibition of human Kv4.3 expressed in CHOK1 cells at < 33 uM at -80 mV holding potential by Ionwork-based analysis; format: cell-based
T5 sequence (Q9UK17 whole entry): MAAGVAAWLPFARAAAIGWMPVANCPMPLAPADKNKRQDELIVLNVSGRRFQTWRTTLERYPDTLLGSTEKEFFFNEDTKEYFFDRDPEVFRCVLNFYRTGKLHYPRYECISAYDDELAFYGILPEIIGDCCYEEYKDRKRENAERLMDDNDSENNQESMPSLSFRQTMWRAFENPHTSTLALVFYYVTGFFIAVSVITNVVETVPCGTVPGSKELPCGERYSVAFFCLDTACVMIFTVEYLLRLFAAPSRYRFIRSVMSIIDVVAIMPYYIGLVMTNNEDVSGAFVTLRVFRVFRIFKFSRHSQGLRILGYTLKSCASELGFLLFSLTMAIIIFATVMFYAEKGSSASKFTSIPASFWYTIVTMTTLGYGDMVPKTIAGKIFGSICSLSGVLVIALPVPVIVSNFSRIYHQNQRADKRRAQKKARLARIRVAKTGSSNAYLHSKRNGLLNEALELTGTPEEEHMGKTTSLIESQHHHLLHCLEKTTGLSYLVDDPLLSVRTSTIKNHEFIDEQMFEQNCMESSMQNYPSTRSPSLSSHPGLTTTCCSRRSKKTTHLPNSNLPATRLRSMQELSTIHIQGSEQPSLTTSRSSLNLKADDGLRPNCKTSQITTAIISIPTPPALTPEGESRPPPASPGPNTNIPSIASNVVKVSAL

Sequence of Cytochrome P450 2C19 (P33261 whole entry): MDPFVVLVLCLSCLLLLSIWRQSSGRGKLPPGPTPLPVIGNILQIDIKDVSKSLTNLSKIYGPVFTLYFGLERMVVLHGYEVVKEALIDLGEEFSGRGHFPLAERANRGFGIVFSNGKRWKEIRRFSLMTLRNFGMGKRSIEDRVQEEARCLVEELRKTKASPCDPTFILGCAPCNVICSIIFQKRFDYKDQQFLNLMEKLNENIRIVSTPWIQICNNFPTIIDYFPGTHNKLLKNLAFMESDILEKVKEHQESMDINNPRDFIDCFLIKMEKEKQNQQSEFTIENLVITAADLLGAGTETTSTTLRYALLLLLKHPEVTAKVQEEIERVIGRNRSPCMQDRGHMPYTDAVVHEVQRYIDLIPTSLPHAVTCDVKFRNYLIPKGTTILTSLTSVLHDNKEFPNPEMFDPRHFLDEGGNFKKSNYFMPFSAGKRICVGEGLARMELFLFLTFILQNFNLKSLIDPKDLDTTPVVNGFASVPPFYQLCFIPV

- IC50 [1]: > 30 µM
- fIC50 [4]: 6.2 nM
- inhibition [5]: inactive
- IC50 [6]: > 30 µM
- inhibition (INH) [7]: Not Active
- IC50 [8]: > 30 µM
- Vd [9]: 0.6 L/kg
- inhibition (INH) [10]: Not Active
Compound: COc1nc(N(CC(C)(C)F)c2cc(Cl)c(F)cc2F)cnc1C(=O)[C@H]1C[C@@H]1C(=O)O [AZD-9898]
- Activity [2]: Dose-dependent effect
- inhibition (INH) [3]: Not Active

Reference: ChEMBL document CHEMBL4376816, “Discovery of the Oral Leukotriene C4 Synthase Inhibitor (1S,2S)-2-({5-[(5-Chloro-2,4-difluorophenyl)(2-fluoro-2-methylpropyl)amino]-3-methoxypyrazin-2-yl}carbonyl)cyclopropanecarboxylic Acid (AZD9898) as a New Treatment for Asthma” (J Med Chem, 2019)
